Test results: patent US12662498B2 (priority 2017, dated 2026)

Legend:
[1] = Heat cycling slurry maturation of Psilocybin Pattern A in 24 solvents (visual solubility)
[2] = ICH stability study of psilocybin batches (appearance, water content, purity, assay); conditions: for Chemical Purity By HPLC / Total Impurities / Water content by loss on drying: listed as GM764B

CN(C)CCc1c[nH]c2cccc(OP(=O)(O)O)c12 [Polymorph A]
Obs. 20° C., 0.4 ml ([1]; 2-Chlorobutane): Susp. | Obs. 20° C., 0.8 ml ([1]; 2-Chlorobutane): Susp. | Obs. 20° C., 1.2 ml ([1]; 2-Chlorobutane): Susp. | Obs. 50° C. ([1]; 2-Chlorobutane, 1.2 ml): Susp. | Obs. 20° C., 0.4 ml ([1]; 4:1 EtOH/water): Susp. | Obs. 20° C., 0.8 ml ([1]; 4:1 EtOH/water): Susp. | Obs. 20° C., 1.2 ml ([1]; 4:1 EtOH/water): Susp. | Obs. 50° C. ([1]; 4:1 EtOH/water, 1.2 ml): Susp. | Obs. 20° C., 0.4 ml ([1]; 4:1 IPA/water): Susp. | Obs. 20° C., 0.8 ml ([1]; 4:1 IPA/water): Susp. | Obs. 20° C., 1.2 ml ([1]; 4:1 IPA/water): Susp. | Obs. 50° C. ([1]; 4:1 IPA/water, 1.2 ml): Susp. | Obs. 20° C., 0.4 ml ([1]; 4:1 THF/water): Susp. | Obs. 20° C., 0.8 ml ([1]; 4:1 THF/water): Susp. | Obs. 20° C., 1.2 ml ([1]; 4:1 THF/water): Susp. | Obs. 50° C. ([1]; 4:1 THF/water, 1.2 ml): Susp. | Obs. 20° C., 0.4 ml ([1]; Anisole): Susp. | Obs. 20° C., 0.8 ml ([1]; Anisole): Susp. | Obs. 20° C., 1.2 ml ([1]; Anisole): Susp. | Obs. 50° C. ([1]; Anisole, 1.2 ml): Susp. | Obs. 20° C., 0.4 ml ([1]; Benzotrifluoride): Susp. | Obs. 20° C., 0.8 ml ([1]; Benzotrifluoride): Susp. | Obs. 20° C., 1.2 ml ([1]; Benzotrifluoride): Susp. | Obs. 50° C. ([1]; Benzotrifluoride, 1.2 ml): Susp. | Obs. 20° C., 0.4 ml ([1]; CHCl3): Susp. | Obs. 20° C., 0.8 ml ([1]; CHCl3): Susp. | Obs. 20° C., 1.2 ml ([1]; CHCl3): Susp. | Obs. 50° C. ([1]; CHCl3, 1.2 ml): Susp. | Obs. 20° C., 0.4 ml ([1]; CPME): Susp. | Obs. 20° C., 0.8 ml ([1]; CPME): Susp. | Obs. 20° C., 1.2 ml ([1]; CPME): Susp. | Obs. 50° C. ([1]; CPME, 1.2 ml): Susp. | Obs. 20° C., 0.4 ml ([1]; Chlorobenzene): Susp. | Obs. 20° C., 0.8 ml ([1]; Chlorobenzene): Susp. | Obs. 20° C., 1.2 ml ([1]; Chlorobenzene): Susp. | Obs. 50° C. ([1]; Chlorobenzene, 1.2 ml): Susp. | Obs. 20° C., 0.4 ml ([1]; Cyclohexane): Susp. | Obs. 20° C., 0.8 ml ([1]; Cyclohexane): Susp. | Obs. 20° C., 1.2 ml ([1]; Cyclohexane): Susp. | Obs. 50° C. ([1]; Cyclohexane, 1.2 ml): Susp. | Obs. 20° C., 0.4 ml ([1]; EtOAc): Susp. | Obs. 20° C., 0.8 ml ([1]; EtOAc): Susp. | Obs. 20° C., 1.2 ml ([1]; EtOAc): Susp. | Obs. 50° C. ([1]; EtOAc, 1.2 ml): Susp. | Obs. 20° C., 0.4 ml ([1]; EtOH): Susp. | Obs. 20° C., 0.8 ml ([1]; EtOH): Susp. | Obs. 20° C., 1.2 ml ([1]; EtOH): Susp. | Obs. 50° C. ([1]; EtOH, 1.2 ml): Susp. | Obs. 20° C., 0.4 ml ([1]; Heptane): Susp. | Obs. 20° C., 0.8 ml ([1]; Heptane): Susp. | Obs. 20° C., 1.2 ml ([1]; Heptane): Susp. | Obs. 50° C. ([1]; Heptane, 1.2 ml): Susp. | Obs. 20° C., 0.4 ml ([1]; IPA): Susp. | Obs. 20° C., 0.8 ml ([1]; IPA): Susp. | Obs. 20° C., 1.2 ml ([1]; IPA): Susp. | Obs. 50° C. ([1]; IPA, 1.2 ml): Susp. | Obs. 20° C., 0.4 ml ([1]; MEK): Susp. | Obs. 20° C., 0.8 ml ([1]; MEK): Susp. | Obs. 20° C., 1.2 ml ([1]; MEK): Susp. | Obs. 50° C. ([1]; MEK, 1.2 ml): Susp. | Obs. 20° C., 0.4 ml ([1]; MIBK): Susp. | Obs. 20° C., 0.8 ml ([1]; MIBK): Susp. | Obs. 20° C., 1.2 ml ([1]; MIBK): Susp. | Obs. 50° C. ([1]; MIBK, 1.2 ml): Susp. | Obs. 20° C., 0.4 ml ([1]; MeCN): Susp. | Obs. 20° C., 0.8 ml ([1]; MeCN): Susp. | Obs. 20° C., 1.2 ml ([1]; MeCN): Susp. | Obs. 50° C. ([1]; MeCN, 1.2 ml): Susp. | Obs. 20° C., 0.4 ml ([1]; MeOH): Susp. | Obs. 20° C., 0.8 ml ([1]; MeOH): Susp. | Obs. 20° C., 1.2 ml ([1]; MeOH): Susp. | Obs. 50° C. ([1]; MeOH, 1.2 ml): Susp. | Obs. 20° C., 0.4 ml ([1]; Nitromethane): Susp. | Obs. 20° C., 0.8 ml ([1]; Nitromethane): Susp. | Obs. 20° C., 1.2 ml ([1]; Nitromethane): Susp. | Obs. 50° C. ([1]; Nitromethane, 1.2 ml): Susp. | Obs. 20° C., 0.4 ml ([1]; TBME): Susp. | Obs. 20° C., 0.8 ml ([1]; TBME): Susp. | Obs. 20° C., 1.2 ml ([1]; TBME): Susp. | Obs. 50° C. ([1]; TBME, 1.2 ml): Susp. | Obs. 20° C., 0.4 ml ([1]; THF): Susp. | Obs. 20° C., 0.8 ml ([1]; THF): Susp. | Obs. 20° C., 1.2 ml ([1]; THF): Susp. | Obs. 50° C. ([1]; THF, 1.2 ml): Susp. | Obs. 20° C., 0.4 ml ([1]; Toluene): Susp. | Obs. 20° C., 0.8 ml ([1]; Toluene): Susp. | Obs. 20° C., 1.2 ml ([1]; Toluene): Susp. | Obs. 50° C. ([1]; Toluene, 1.2 ml): Susp. | Obs. 20° C., 0.4 ml ([1]; Water): Susp. | Obs. 20° C., 0.8 ml ([1]; Water): Susp. | Obs. 20° C., 1.2 ml ([1]; Water): Susp. | Obs. 50° C. ([1]; Water, 1.2 ml): Solution | Obs. 20° C., 0.4 ml ([1]; iPrOAc): Susp. | Obs. 20° C., 0.8 ml ([1]; iPrOAc): Susp. | Obs. 20° C., 1.2 ml ([1]; iPrOAc): Susp. | Obs. 50° C. ([1]; iPrOAc, 1.2 ml): Susp. | time stable under accelerated stability testing conditions ([2]; accelerated conditions): 12 months

CN(C)CCc1c[nH]c2cccc(OP(=O)(O)O)c12 [Batch GM764B]
Appearance ([2]; T = 0): An off white solid. | Assay by 1H-NMR ([2]; T = 0): 97% ^w/w % w/w | Impurities by HPLC: RRT 0.86 ([2]; T = 0): 0.05% | Impurities by HPLC: RRT 1.46 ([2]; T = 0): 0.05% | Impurities by HPLC: RRT 1.59 (Psilocin) ([2]; T = 0): 0.37% | Chemical Purity By HPLC ([2]; T = 0): 99.24% | Total Impurities ([2]; T = 0): 0.76% | Water content by loss on drying ([2]; T = 0): 0.86% ^w/w % w/w | Appearance ([2]; T = 1 month, 2-8° C.): An off white solid. | Assay by 1H-NMR ([2]; T = 1 month, 2-8° C.): 99% ^w/w % w/w | Impurities by HPLC: RRT 0.86 ([2]; T = 1 month, 2-8° C.): 0.05% | Impurities by HPLC: RRT 1.46 ([2]; T = 1 month, 2-8° C.): 0.09% | Impurities by HPLC: RRT 1.59 (Psilocin) ([2]; T = 1 month, 2-8° C.): 0.35% | Chemical Purity By HPLC ([2]; T = 1 month, 2-8° C.): 99.24% | Total Impurities ([2]; T = 1 month, 2-8° C.): 0.76% | Water content by loss on drying ([2]; T = 1 month, 2-8° C.): 0.35% ^w/w % w/w | Appearance ([2]; T = 1 month, 25° C./60% RH): An off white solid. | Assay by 1H-NMR ([2]; T = 1 month, 25° C./60% RH): 98% ^w/w % w/w | Impurities by HPLC: RRT 0.86 ([2]; T = 1 month, 25° C./60% RH): 0.05% | Impurities by HPLC: RRT 1.46 ([2]; T = 1 month, 25° C./60% RH): 0.10% | Impurities by HPLC: RRT 1.59 (Psilocin) ([2]; T = 1 month, 25° C./60% RH): 0.34% | Chemical Purity By HPLC ([2]; T = 1 month, 25° C./60% RH): 99.22% | Total Impurities ([2]; T = 1 month, 25° C./60% RH): 0.78% | Water content by loss on drying ([2]; T = 1 month, 25° C./60% RH): 0.20% ^w/w % w/w | Appearance ([2]; T = 1 month, 40° C./75% RH): An off white solid. | Assay by 1H-NMR ([2]; T = 1 month, 40° C./75% RH): 96% ^w/w % w/w | Impurities by HPLC: RRT 0.86 ([2]; T = 1 month, 40° C./75% RH): 0.05% | Impurities by HPLC: RRT 1.46 ([2]; T = 1 month, 40° C./75% RH): 0.10% | Impurities by HPLC: RRT 1.59 (Psilocin) ([2]; T = 1 month, 40° C./75% RH): 0.34% | Chemical Purity By HPLC ([2]; T = 1 month, 40° C./75% RH): 99.23% | Total Impurities ([2]; T = 1 month, 40° C./75% RH): 0.77% | Water content by loss on drying ([2]; T = 1 month, 40° C./75% RH): 0.14% ^w/w % w/w | Appearance ([2]; T = 3 months, 2-8° C.): An off white solid. | Assay by 1H-NMR ([2]; T = 3 months, 2-8° C.): 97% ^w/w % w/w | Impurities by HPLC: RRT 0.86 ([2]; T = 3 months, 2-8° C.): < 0.05% | Impurities by HPLC: RRT 1.46 ([2]; T = 3 months, 2-8° C.): 0.10% | Impurities by HPLC: RRT 1.59 (Psilocin) ([2]; T = 3 months, 2-8° C.): 0.37% | Chemical Purity By HPLC ([2]; T = 3 months, 2-8° C.): 99.31% | Total Impurities ([2]; T = 3 months, 2-8° C.): 0.69% | Water content by loss on drying ([2]; T = 3 months, 2-8° C.): 0.26% ^w/w % w/w | Appearance ([2]; T = 3 months, 25° C./60% RH): An off white solid. | Assay by 1H-NMR ([2]; T = 3 months, 25° C./60% RH): 99% ^w/w % w/w | Impurities by HPLC: RRT 0.86 ([2]; T = 3 months, 25° C./60% RH): < 0.05% | Impurities by HPLC: RRT 1.46 ([2]; T = 3 months, 25° C./60% RH): 0.09% | Impurities by HPLC: RRT 1.59 (Psilocin) ([2]; T = 3 months, 25° C./60% RH): 0.36% | Chemical Purity By HPLC ([2]; T = 3 months, 25° C./60% RH): 99.27% | Total Impurities ([2]; T = 3 months, 25° C./60% RH): 0.73% | Water content by loss on drying ([2]; T = 3 months, 25° C./60% RH): 0.08% ^w/w % w/w | Appearance ([2]; T = 3 months, 40° C./75% RH): An off white solid. | Assay by 1H-NMR ([2]; T = 3 months, 40° C./75% RH): 97% ^w/w % w/w | Impurities by HPLC: RRT 0.86 ([2]; T = 3 months, 40° C./75% RH): < 0.05% | Impurities by HPLC: RRT 1.46 ([2]; T = 3 months, 40° C./75% RH): 0.10% | Impurities by HPLC: RRT 1.59 (Psilocin) ([2]; T = 3 months, 40° C./75% RH): 0.37% | Chemical Purity By HPLC ([2]; T = 3 months, 40° C./75% RH): 99.26% | Total Impurities ([2]; T = 3 months, 40° C./75% RH): 0.74% | Water content by loss on drying ([2]; T = 3 months, 40° C./75% RH): 0.14% ^w/w % w/w
